The nature of data set [1]: Solution state stability assay. It is filed as physicochemical. Conditions: 50° C.; for % degradation at 28 days: HPLC; for aqueous stability / hydrolysis, comparison in words: buffer, 28 days. Here is the method:
Compounds were incubated in the buffer media indicated (ingredients for making of PBS buffer and sodium citrate/citric acid buffer were obtained from Sigma-Aldrich, St. Louis, MO, USA). The reactions were conducted at either 50° C. and for 28 days. Samples were collected at specific time points and analyzed for % degradation of the parent compound based on UV/Vis analysis.
Methods: Samples were weighed using a Mettler Toledo XS105 analytical balance (accurate to +/−0.01 mg). Accurate dilutions were made with a P1000, P200, or P20 Gilson Pipetman, or an Eppendorf Maxipettor 1-10 mL pipettor. pH Measurements were made with a Hanna Instruments HI 4222 pH meter and a Hanna instruments HI 1330B micro pH probe. Samples were analyzed via high pressure liquid chromatography using an Agilent series 1100 HPLC instrument with a Grace Alltima column. Chromatograms were manually integrated. Individual chromatograms are assigned an automatic HPLC identification number.
Freshly prepared 1.0 mg/mL solution of each compound listed in Table # was allotted into two-dram clear glass vials. […] The vials were then stored in an oven set to 50° C. At the appropriate time points, the vials were removed from the oven, vortexed for 30 seconds and an aliquot (400 μL) was pipetted into an HPLC vial and quenched with 1% TFA in ACN (400 μL). […] For all samples, aliquots were taken after 28 days. Quenched vials were immediately analyzed via HPLC.

The target in data set [2] is T1, human TRPM8 receptor expressed in transfected 293H cells (Homo sapiens, UniProt Q7Z2W7).
T1 construct: expressed in transfected cells; host or cells: 293H cells
In words: TRPM8 Human Transient Potential Ion Channel Cell Based Agonist Calcium Flux Assay (FLIPR). The source says:
This example discloses results from TRPM8 Human Transient Potential Ion Channel Cell Based Agonist Calcium Flux Assay. Evaluation of the agonist activity of compounds at the human TRPM8 receptor expressed in transfected 293H cells, determined by measuring their effect on cytosolic Ca2+ ion mobilization using a fluorometric detection method.
Protocol: The cells are suspended in DMEM buffer (Invitrogen), then distributed in microplates at a density of 3×10^4 cells/well. The fluorescent probe (Fluo4 Direct, Invitrogen) in HBSS buffer (Invitrogen) complemented with 20 mM Hepes (Invitrogen) (pH 7.4) is then added into each well and equilibrated with the cells for 60 min at 37° C. then 15 min at 22° C. Thereafter, the assay plates are positioned in a microplate reader (CellLux, PerkinElmer) which is used for the addition of the test compound, reference agonist or HBSS buffer (basal control), and the measurements of changes in fluorescence intensity which varies proportionally to the free cytosolic Ca2+ ion concentration. For stimulated control measurements, Icilin at 3 μM is added in separate assay wells. The results are expressed as a percent of the control response to 3 μM icilin. The standard reference agonist is Icilin, which is tested in each experiment at several concentrations to generate a concentration-response curve from which its EC50 value is calculated. (Behrendt, H. J., Germann, T., Gillen, C and Hatt, H. and Jostock, R. (2004), Characterization of the mouse cold-menthol receptor TRPM8 and vanilloid receptor type-1 VR1 using a fluorometric imaging plate reader (FLIPR) assay, Br. J. Pharmacol., 141: 737.)
Data analysis: EC50 values were determined as the concentration of test substance required to produce half-maximal increases in [Ca^2+]. Maximal [Ca^2+] responses were measured as peak fluorescence intensity (FI) minus basal FI, and expressed as percentages of the maximum response to icilin. Data are given as means±s.e.m., unless otherwise stated.
The EC50 values (concentration producing a half-maximal response) and IC50 values (concentration causing a half-maximal inhibition of the control agonist response) were determined by non-linear regression analysis of the concentration-response curves generated with mean replicate values using Hill equation curve fitting:
where Y=response, A=left asymptote of the curve, D=right asymptote of the curve, C=compound concentration, and C50=EC50, and nH=slope factor.

A short description of data set [3]: Solubility assay in DI water. It is filed as physicochemical. Conditions: thermodynamic from solid, HCl salts, visual, stepwise dilution from 200 mg/mL, sonication and vortex. Here is the method:
In order to determine the aqueous solubility of the compounds indicated, the HCl salts of the following compounds were incubated at 200 mg/mL in DI water followed by sonication for 60 seconds and then vortex stirring for 60 seconds. If insoluble material was observed, the sample was diluted to 150, 100, 50, 25, or 20 mg/mL until no insoluble material was observed. After each dilution, each sample was sonicated for 60 seconds, vortexed for 60 seconds and let equilibrate with occasional shaking for 30 minutes.

[4] abbreviates: pH = ~5.0 (0.2 M aqueous sodium citrate/citric acid buffer).
[5] abbreviates: pH = ~7.4 (1X Phosphate Buffered Saline).
Setting [6] is: Ca2+ mobilization, fluorometric detection, 293H cells, response relative to 3 μM icilin, read-out: TRPM8 agonist EC50.

pEC50: −log10 of the molar value. Where a name gives a salt, the structure may show the parent alone. Read-outs that look alike come from different tables or passages of the source.

Data on 23 compounds can be found in patent US20240199564A1, “TRPM8 AGONISTS AS COOLING AGENTS AND FOR THE TREATMENT OF DISEASE” (Concentric Analgesics, Inc., priority 2021, published 2024).

Broadly, the pEC50 is −log10 of the EC50, conventionally taken in molar units. A word on the solubility: it is how much of the substance goes into solution per volume.

T1 sequence (Q7Z2W7 whole entry): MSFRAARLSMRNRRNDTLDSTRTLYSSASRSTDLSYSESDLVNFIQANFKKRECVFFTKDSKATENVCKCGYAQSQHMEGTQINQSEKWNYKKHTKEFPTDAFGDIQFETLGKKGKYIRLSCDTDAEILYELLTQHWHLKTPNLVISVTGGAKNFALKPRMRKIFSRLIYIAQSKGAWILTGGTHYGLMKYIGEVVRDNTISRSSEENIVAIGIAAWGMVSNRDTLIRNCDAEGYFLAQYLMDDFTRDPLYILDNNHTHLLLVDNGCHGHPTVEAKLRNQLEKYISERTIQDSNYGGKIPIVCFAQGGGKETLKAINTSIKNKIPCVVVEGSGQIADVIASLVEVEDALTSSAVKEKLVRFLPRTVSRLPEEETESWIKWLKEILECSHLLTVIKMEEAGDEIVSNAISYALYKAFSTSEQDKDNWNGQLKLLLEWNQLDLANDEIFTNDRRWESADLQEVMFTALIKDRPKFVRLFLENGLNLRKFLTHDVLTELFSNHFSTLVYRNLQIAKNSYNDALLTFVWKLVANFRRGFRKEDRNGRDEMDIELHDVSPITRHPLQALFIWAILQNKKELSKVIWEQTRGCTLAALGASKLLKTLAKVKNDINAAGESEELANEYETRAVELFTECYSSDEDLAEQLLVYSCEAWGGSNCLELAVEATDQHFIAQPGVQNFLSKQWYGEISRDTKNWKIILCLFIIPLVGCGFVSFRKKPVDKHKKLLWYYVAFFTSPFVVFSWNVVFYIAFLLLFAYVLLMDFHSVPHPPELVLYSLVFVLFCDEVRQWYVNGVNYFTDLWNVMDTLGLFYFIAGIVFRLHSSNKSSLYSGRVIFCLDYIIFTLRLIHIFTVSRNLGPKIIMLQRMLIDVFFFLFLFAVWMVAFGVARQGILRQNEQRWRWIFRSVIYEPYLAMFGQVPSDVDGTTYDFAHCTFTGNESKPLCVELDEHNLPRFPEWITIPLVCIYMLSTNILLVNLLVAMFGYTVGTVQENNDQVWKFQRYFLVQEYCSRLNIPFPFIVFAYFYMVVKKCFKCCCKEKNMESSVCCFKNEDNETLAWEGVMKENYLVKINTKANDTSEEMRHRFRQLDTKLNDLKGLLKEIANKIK

Regarding `CC(C)[C@@H]1CC[C@@H](C)C[C@H]1OC(=O)Nc1cccc(CN)c1` [Aniline 1], the figures for the “% degradation at 28 days” value in data set [1] (setting [4]) and in data set [1] (setting [5]) were roughly 36.2% and roughly 41.2%, respectively.

Take `CC(C)[C@@H]1CC[C@@H](C)C[C@H]1OC(=O)N(C)c1cccc(CN)c1` [Aniline 2]: the “% degradation at 28 days” value in data set [1] (setting [4]) is on record as roughly 24.3%; in data set [1] (setting [5]) it was roughly 24.4%.

As for `CC(C)[C@@H]1CC[C@@H](C)C[C@H]1OCC(=O)N(C)c1cccc(CN)c1` [Aniline 3], in data set [1], the “aqueous stability / hydrolysis, comparison in words” value is “more stable”. The “% degradation at 28 days” value in data set [1] (setting [4]) is on record as roughly 0.4%; in data set [1] (setting [5]), roughly 8.1%.

In the case of `CC(C)[C@@H]1CC[C@@H](C)C[C@H]1C(=O)N(C)c1cccc(CN)c1` [Aniline 4], the results for the “% degradation at 28 days” value in data set [1] (setting [4]) and in data set [1] (setting [5]) were roughly 23.5% and roughly 31.9%, respectively.

`CC(C)[C@@H]1CC[C@@H](C)C[C@H]1OCC(=O)N(C)Cc1cccc(CN(C)C)c1` [Compound 1, N-(3-((dimethylamino)methyl)benzyl)-2-(((1R,2S,5R)-2-isopropyl-5-methylcyclohexyl)oxy)-N-methylacetamide hydrochloride]: the pEC50 in data set [2] (setting [6]) was 6.01.

As to `CC(C)[C@@H]1CC[C@@H](C)C[C@H]1OCC(=O)NCc1ccc(CN)cc1` [Compound 2, N-(4-(aminomethyl)benzyl)-2-(((1R,2S,5R)-2-isopropyl-5-methylcyclohexyl)oxy)acetamide hydrochloride], the pEC50 in data set [2] (setting [6]) is 5.48.

Regarding `CC(C)[C@@H]1CC[C@@H](C)C[C@H]1C(=O)N(C)Cc1cccc(CN(C)C)c1.Cl` [Compound 3, (1R,2S,5R)-N-(3-((dimethylamino)methyl)benzyl)-2-isopropyl-N,5-dimethylcyclohexanecarboxamide hydrochloride], in data set [2] (setting [6]), the pEC50 is 6.12. Besides, in data set [1], the “aqueous stability / hydrolysis, comparison in words” value is “greatest aqueous stability”. Besides, the “% degradation at 28 days” value in data set [1] (setting [4]) and in data set [1] (setting [5]) was “Noneª None^b” each time.

For the compound `CC(C)[C@@H]1CC[C@@H](C)C[C@H]1C(=O)NCc1cccc(N2CCNCC2)c1` [Compound 5, (1R,2S,5R)-2-isopropyl-5-methyl-N-(3-(piperazin-1-yl)benzyl)cyclohexanecarboxamide dihydrochloride], the pEC50 in data set [2] (setting [6]) is 6.66.

As to `CC(C)[C@@H]1CC[C@@H](C)C[C@H]1C(=O)NCc1cccc(N2CCN(C(=O)CN)CC2)c1` [Compound 6, (1R,2S,5R)-N-(3-(4-(2-aminoacetyl)piperazin-1-yl)benzyl)-2-isopropyl-5-methylcyclohexanecarboxamide dihydrochloride], the pEC50 in data set [2] (setting [6]) is 6.42.

For `CC(C)[C@@H]1CC[C@@H](C)C[C@H]1C(=O)NCc1ccc(CNC(=O)CN)cc1` [Compound 7, (1R,2S,5R)-N-(4-((2-aminoacetamido)methyl)benzyl)-2-isopropyl-5-methylcyclohexanecarboxamide hydrochloride], the pEC50 in data set [2] (setting [6]) is 6.29.

Turning to `CC(C)[C@@H]1CC[C@@H](C)C[C@H]1C(=O)NCc1ccccc1N1CCN(C(=O)CN)CC1` [Compound 9, (1R,2S,5R)-N-(2-(4-(2-aminoacetyl)piperazin-1-yl)benzyl)-2-isopropyl-5-methylcyclohexanecarboxamide dihydrochloride], the pEC50 in data set [2] (setting [6]) is less than 5.00.

On to `CC(C)[C@@H]1CC[C@@H](C)C[C@H]1C(=O)NCc1ccc(N2CCNCC2)cc1.Cl.Cl` [Compound 10, (1R,2S,5R)-2-isopropyl-5-methyl-N-(4-(piperazin-1-yl)benzyl)cyclohexanecarboxamide dihydrochloride], for which the pEC50 in data set [2] (setting [6]) is 6.96. Also, the solubility at 30 min in data set [3] was no less than 200 mg/mL.

For the compound `CC(C)[C@@H]1CC[C@@H](C)C[C@H]1C(=O)NCc1ccc2c(c1)CCNC2` [Compound 11, (1R,2S,5R)-2-isopropyl-5-methyl-N-((1,2,3,4-tetrahydroisoquinolin-6-yl)methyl)cyclohexanecarboxamide hydrochloride], the pEC50 in data set [2] (setting [6]) was 6.77.

As to `CC(C)[C@@H]1CC[C@@H](C)C[C@H]1C(=O)NCc1ccc(CCN)cc1` [Compound 12, (1R,2S,5R)-N-(4-(2-aminoethyl)benzyl)-2-isopropyl-5-methylcyclohexanecarboxamide hydrochloride], the pEC50 in data set [2] (setting [6]) is 6.70.

Regarding `CC(N)c1ccc(CNC(=O)[C@@H]2C[C@H](C)CC[C@H]2C(C)C)cc1` (stereo partly drawn) [Compound 13, (1R,2S,5R)-N-(4-(1-aminoethyl)benzyl)-2-isopropyl-5-methylcyclohexanecarboxamide hydrochloride], in data set [2] (setting [6]), the pEC50 was 6.82.

For `CC(C)[C@@H]1CC[C@@H](C)C[C@H]1C(=O)NCc1ccc(CN)cc1F` [Compound 14, (1R,2S,5R)-N-(4-(aminomethyl)-2-fluorobenzyl)-2-isopropyl-5-methylcyclohexanecarboxamide hydrochloride], the pEC50 in data set [2] (setting [6]) is 7.02.

Consider `CC(C)[C@@H]1CC[C@@H](C)C[C@H]1C(=O)NCc1ccc(CN2CCNCC2)cc1.Cl.Cl` [Compound 15, (1R,2S,5R)-2-isopropyl-5-methyl-N-(4-(piperazin-1-ylmethyl)benzyl)cyclohexanecarboxamide dihydrochloride], for which the pEC50 in data set [2] was 7.10. Further, in data set [3], the solubility at 30 min was no less than 200 mg/mL.

For `CC(C)[C@@H]1CC[C@@H](C)C[C@H]1C(=O)NCc1cc(CN)ccn1` [Compound 17, (1R,2S,5R)-N-((4-(aminomethyl)pyridin-2-yl)methyl)-2-isopropyl-5-methylcyclohexanecarboxamide hydrochloride], the pEC50 in data set [2] (setting [6]) was 7.24.

For the compound `CC(C)[C@@H]1CC[C@@H](C)C[C@H]1C(=O)NCc1ccc(COC2CCNCC2)cc1` [Compound 18, (1R,2S,5R)-2-isopropyl-5-methyl-N-(4-((piperidin-4-yloxy)methyl)benzyl)cyclohexanecarboxamide hydrochloride], in data set [2] (setting [6]), the pEC50 is 6.68.

Turning to `CC(C)[C@@H]1CC[C@@H](C)C[C@H]1C(=O)NCc1ccc(CN(C)Cc2ccccc2)cc1` [Compound 19, (1R,2S,5R)-N-(4-((benzyl(methyl)amino)methyl)benzyl)-2-isopropyl-5-methylcyclohexanecarboxamide hydrochloride], in data set [2] (setting [6]), the pEC50 was 4.46.

In the case of `CC(C)[C@@H]1CC[C@@H](C)C[C@H]1C(=O)NCc1ccc(CN2CCCC2)cc1` [Compound 20, (1R,2S,5R)-2-isopropyl-5-methyl-N-(4-(pyrrolidin-1-ylmethyl)benzyl)cyclohexanecarboxamide hydrochloride], the pEC50 in data set [2] (setting [6]) was 6.82.

Take `CC(C)[C@@H]1CC[C@@H](C)C[C@H]1C(=O)NCc1ccc(CN(C)C)cc1` [Compound 21, (1R,2S,5R)-N-(4-((dimethylamino)methyl)benzyl)-2-isopropyl-5-methylcyclohexanecarboxamide hydrochloride]: in data set [2] (setting [6]), the pEC50 was 6.38.

Regarding `CC(C)[C@@H]1CC[C@@H](C)C[C@H]1C(=O)NCc1ccc(CN2CCOCC2)cc1` [Compound 22, (1R,2S,5R)-2-isopropyl-5-methyl-N-(4-(morpholinomethyl)benzyl)cyclohexanecarboxamide hydrochloride], the pEC50 in data set [2] (setting [6]) was 6.05.
